# Data from patent publication US8822449B2, “Substituted aminoindanes and analogs thereof, and the pharmaceutical use thereof” (Sanofi, priority 2008, dated 2014).
# Biological target: T1, sodium-proton exchanger of subtype 3 (NHE3) (Homo sapiens, UniProt P48764)
# T1 construct: expressed in transfected cells
# T1 sequence (P48764 26-834): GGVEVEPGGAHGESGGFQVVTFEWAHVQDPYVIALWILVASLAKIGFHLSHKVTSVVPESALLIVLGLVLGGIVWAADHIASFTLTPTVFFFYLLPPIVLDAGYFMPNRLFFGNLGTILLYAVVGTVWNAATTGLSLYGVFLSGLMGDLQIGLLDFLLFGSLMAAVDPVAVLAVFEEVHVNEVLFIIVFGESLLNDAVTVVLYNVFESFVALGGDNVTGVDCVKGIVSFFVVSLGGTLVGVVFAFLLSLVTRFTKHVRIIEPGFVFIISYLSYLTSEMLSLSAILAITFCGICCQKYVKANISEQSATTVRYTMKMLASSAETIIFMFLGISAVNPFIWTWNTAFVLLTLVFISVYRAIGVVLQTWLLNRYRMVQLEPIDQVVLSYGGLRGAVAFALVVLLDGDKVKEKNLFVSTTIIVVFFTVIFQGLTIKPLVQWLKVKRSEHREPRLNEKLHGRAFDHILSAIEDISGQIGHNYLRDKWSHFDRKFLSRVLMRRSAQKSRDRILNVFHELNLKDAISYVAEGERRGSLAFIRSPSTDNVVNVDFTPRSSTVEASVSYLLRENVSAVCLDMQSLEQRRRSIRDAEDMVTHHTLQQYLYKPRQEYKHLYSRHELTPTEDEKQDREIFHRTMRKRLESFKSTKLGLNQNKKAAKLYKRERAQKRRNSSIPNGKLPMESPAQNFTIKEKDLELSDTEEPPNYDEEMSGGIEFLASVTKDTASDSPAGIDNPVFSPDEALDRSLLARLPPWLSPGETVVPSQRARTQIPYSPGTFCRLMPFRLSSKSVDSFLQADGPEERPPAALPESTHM
# Experiment: Recovery of intracellular pH (pHi) after acidification in LAP1 cells stably expressing NHE3 (BCECF fluorescence, FLIPR)
# Format: cell-based
# Settings: LAP1 cells stably expressing NHE3; pH recovery after acidification; range 1 is % inhibition at 10 μM; read-out: Activity range (inhibitory effect on NHE3)
SMILES,IC50 [nM],inhibition at 10 µM [%]
"C[C@@H]1CN([C@H]2Cc3c(Cl)cc(Cl)cc3[C@@H]2Oc2ccc(S(C)(=O)=O)cc2)CCN1 [Example 101, (R)-1-[trans-(1S,2S)-4,6-dichloro-1-(4-methanesulfonylphenoxy)indan-2-yl]-3-methylpiperazine]",< 1000,
"COc1cc(Cl)ccc1O[C@H]1c2ccccc2CC[C@@H]1N1CCC[C@H](N)C1 (racemic) [Example 174, (S)-1-[rac-trans-(1,2)-1-(4-chloro-2-methoxyphenoxy)-1,2,3,4-tetrahydronaphthalen-2-yl]piperidin-3-ylamine]",,20 to 50
"N[C@@H]1CCCN([C@@H]2Cc3ccccc3[C@H]2Oc2ccc(NC(=O)OCc3ccccc3)cc2)C1 (racemic) [Example 238, {4-[rac-trans-(1,2)-2-((R)-3-aminopiperidin-1-yl)indan-1-yloxy]phenyl}carbamic acid benzyl ester]",1000 to 10000,
"CS(=O)(=O)c1ccc(O[C@H]2c3cc(Cl)cc(Cl)c3C[C@@H]2N2CCCNCC2)cc1 (racemic) [Example 277, 1-[rac-trans-(1,2)-4,6-dichloro-1-(4-methanesulfonylphenoxy)indan-2-yl]-[1,4]diazepane]",< 1000,
"N[C@H]1CCCN([C@H]2CCc3ccccc3[C@@H]2Oc2ccccc2N2CCOCC2)C1 (racemic) [Example 158, (S)-1-[rac-trans-(1,2)-1-(2-morpholin-4-ylphenoxy)-1,2,3,4-tetrahydronaphthalen-2-yl]piperidin-3-ylamine]",,20 to 50
"N[C@H]1CCCN([C@H]2CCc3ccccc3[C@@H]2Oc2ccnc(Cl)c2)C1 (racemic) [Example 153, (S)-1-[rac-trans-(1,2)-1-(2-chloropyridin-4-yloxy)-1,2,3,4-tetrahydronaphthalen-2-yl]piperidin-3-ylamine]",,20 to 50
"COc1cccc(F)c1O[C@H]1c2ccccc2CC[C@@H]1N1CCC[C@@H](N)C1 (racemic) [Example 44, (R)-1-[rac-trans-(1,2)-1-(2-fluoro-6-methoxyphenoxy)-1,2,3,4-tetrahydronaphthalen-2-yl]piperidin-3-ylamine]",,20 to 50
"COc1cccc(OC)c1O[C@H]1c2ccccc2CC[C@@H]1N1CCC[C@@H](N)C1 (racemic) [Example 34, (R)-1-[rac-trans-(1,2)-1-(2,6-dimethoxyphenoxy)-1,2,3,4-tetrahydronaphthalen-2-yl]piperidin-3-ylamine]",,20 to 50

# Next, values leading:
IC50 [nM],inhibition at 10 µM [%],SMILES
< 1000,,"NS(=O)(=O)c1ccc(O[C@H]2c3cc(Cl)cc(Cl)c3C[C@@H]2N2CC[C@@H](O)C2)c(F)c1 [Example 741, 4-[trans-(1S,2S)-4,6-Dichloro-2-((R)-3-hydroxy-pyrrolidin-1-yl)-indan-1-yloxy]-3-fluoro-benzenesulfonamide]"
,20 to 50,"N#Cc1ccc(O[C@H]2c3ccccc3CC[C@@H]2N2CCC[C@H](N)C2)cc1Cl (racemic) [Example 529, 4-[rac-trans-(1,2)-2-((S)-3-aminopiperidin-1-yl)-1,2,3,4-tetrahydronaphthalen-1-yloxy]-2-chlorobenzonitrile]"
,20 to 50,"CC(=O)Nc1cccc(O[C@H]2c3c(Cl)cc(Cl)cc3C[C@@H]2N(C)C)c1 (racemic) [Example 654, N-[3-(rac-trans-(1,2)-5,7-dichloro-2-dimethylaminoindan-1-yloxy)phenyl]acetamide]"
1000 to 10000,,"N#Cc1ccc(O[C@H]2c3ccccc3C[C@@H]2N2CCCC2)cc1 (racemic) [Example 468, 4-(rac-trans-(1,2)-2-pyrrolidin-1-ylindan-1-yloxy)benzonitrile]"
1000 to 10000,,"NCC1CCN([C@@H]2Cc3ccccc3[C@H]2Oc2ccc3c(c2)OCO3)CC1 (racemic) [Example 620, C-{1-[rac-trans-(1,2)-1-(benzo[1,3]dioxol-5-yloxy)indan-2-yl]piperidin-4-yl}methylamine]"
1000 to 10000,,"N#Cc1ccc(O[C@H]2c3cc(Cl)cc(F)c3C[C@@H]2N2CC[C@@H](O)C2)c(F)c1 [Example 557, 4-[trans-(1S,2S)-6-chloro-4-fluoro-2-((R)-3-hydroxypyrrolidin-1-yl)indan-1-yloxy]-3-fluorobenzonitrile]"
